{"source": "paper PMC10933344", "about": "“A lncRNA Dleu2-encoded peptide relieves autoimmunity by facilitating Smad3-mediated Treg induction” (EMBO Reports, 2024)", "tested_on": "naive CD4+ T cells", "test": "In vitro iTreg differentiation (Foxp3+ of CD4+ cells)", "assay_type": "cell-based, mouse", "conditions": "20 μM, 72 h", "protocol": "C57BL/6 mice were sacrificed, and their spleens and peripheral lymph nodes were removed and gently dissociated into single-cell suspensions. Naive T cells were isolated using the Mouse CD4 Naive T Cell Isolation Kit (BioLegend, Stem Cell, or Thermo Fisher Scientific). Flow cytometry verified that the purity (CD4^+CD25^−CD62L^hi) of the enriched subpopulation was typically higher than 95%. All T cells were cultured using RPMI-1640 medium (Gibco) supplemented with 10% heat-inactivated fetal bovine serum (Gibco), 2 mM L-glutamine (Gibco), 10,000 units/mL of penicillin, 10,000 µg/mL of streptomycin, and 25 µg/mL of Gibco Amphotericin B (Thermo Fisher Scientific), 10 mM HEPES (Gibco), 1 mM Sodium pyruvate, MEM Non-Essential Amino Acids (Life Technologies) and 55 μM β-mercaptoethanol (Gibco). 0.1 million naive CD4^+ T cells were activated with plate-coated anti-CD3 (2.5 μg/ml; BD Biosciences) and soluble anti-CD28 (2 μg/ml; BD Biosciences) antibodies. The Th1 cell differentiation condition included recombinant murine (rm)IL-12 (10 ng/ml, PeproTech) and anti-IL-4 (10 μg/ml, BioLegend). The Th17 cell differentiation condition included rmIL-6 (10 ng/ml, PeproTech), rmTGF-β1 (5 ng/ml, PeproTech), rmIL-23 (10 ng/ml, PeproTech), anti-IL-4 (5 μg/ml, BioLegend) and anti-IFN-γ (10 μg/ml, eBioscience). The inducible T regulatory cell (iTreg) differentiation condition included rmTGF-β (5 ng/ml, PeproTech). 0.1 million naive CD8^+ T cells were activated with plate-coated anti-CD3 (10 μg/ml; BD Biosciences) and plate-coated anti-CD28 (10 μg/ml; BD Biosciences) antibodies. The Tc17 cell differentiation condition included rmIL-6 (10 ng/ml, PeproTech), rmTGF-β1 (2 ng/ml, PeproTech), rmIL-23 (25 ng/ml, PeproTech), rmIL1-β (5 ng/ml, PeproTech), and anti-IFN-γ (10 μg/ml, eBioscience). The Tc1 cell differentiation condition included rmIL-2 (5 ng/ml, PeproTech) and rm IL-12 (1 ng/ml, PeproTech). Different concentrations of Dleu2-17aa and scrPEP (Genscript) were added to the T cell culture from the beginning unless specified. Cells were cultured in U-bottom 96-well plates for 72 h and detected by flow cytometry.\nFor in vitro mouse T cell differentiation, after 72 h of induction, cells were activated for 4–6 h at 37 °C with the Cell Stimulation Cocktail (Thermo Fisher Scientific) if intracellular cytokine staining is needed, surface markers were stained in FACS buffer (PBS containing 2% FBS) for 30 min at 4 °C protected from light. Cells were then fixed and permeabilized with the Foxp3 Staining Buffer Set (eBioscience) or BD Cytofix/Cytoperm (BD Biosciences) and were stained with fluorescent antibodies. After washing, stained cells were assayed with an LSRFortessa (BD) flow cytometer, and data were analyzed with FlowJo software. Single-cell suspensions from EAE mouse spleen or CNS (day 16 post-immunization) were derived through mechanical separation and passage through a 70-μm filter (Fisherbrand) and analyzed using similar steps. For flow cytometry, antibodies against CD4 (clone GK1.5, 1:200), CD62L (clone MEL-14, 1:200), CD44 (clone IM7, 1:200), CD25 (clone PC61.5, 1:200), IL-17A (clone eBio17B7, 1:200), IFN-γ (clone XMG1.2, 1:200), FoxP3 (clone FJK-16s, 1:200), CD184 (clone 2B11/CXCR4, 1:100), CD152 (clone BNI3 1:100) and CD357 (clone DTA-1 1:100) were from eBioscience, CD3 (clone 145-2C11, 1:200) was from Biolegend and TGFBI (1:100) were from proteintech. For Dleu2-17aa expression detection, C57BL/6 mice were sacrificed, and their spleens were removed and gently dissociated into single-cell suspensions. An Fc blocker was used to reduce potential nonspecific antibody staining caused by IgG. Surface staining was performed using monoclonal antibodies against CD45 (clone 30-F11), CD3 (clone 145-2C11), CD19 (clone SJ25C1), CD11c (clone N418), MHCII (clone M5/114.15.2), F4/80 (clone BM8) all at a dilution of 1:200 (from Biolengend) followed by fixation and permeabilization of the nuclear membrane BD Cytofix/Cytoperm (BD Biosciences). […]", "data": [{"sequence": "ARGPARRMRGGRRRRLR [scrPEP, scrambled control peptide of Dleu2-17aa]", "values": [{"measurement": "Foxp3+/ CD4+ Cells (%)", "setting": "replicate 1", "result": 32.8, "unit": "%"}, {"measurement": "Foxp3+/ CD4+ Cells (%)", "setting": "replicate 2", "result": 22.9, "unit": "%"}, {"measurement": "Foxp3+/ CD4+ Cells (%)", "setting": "replicate 3", "result": 16.77, "unit": "%"}, {"measurement": "Foxp3+/ CD4+ Cells (%)", "setting": "replicate 4", "result": 32.13, "unit": "%"}, {"measurement": "Foxp3+/ CD4+ Cells (%)", "setting": "replicate 5", "result": 22.9, "unit": "%"}, {"measurement": "Foxp3+/ CD4+ Cells (%)", "setting": "replicate 6", "result": 10.3, "unit": "%"}, {"measurement": "Foxp3+/ CD4+ Cells (%)", "setting": "replicate 7", "result": 30.6, "unit": "%"}]}]}
